Assay results reported in US7285567B2, “Halogenated benzamide derivatives” (Romark Laboratories, L.C., priority 2005, dated 2007).
Values after ≈ are worked out from the molar mass of the structure shown. Like-named read-outs stand apart in the source and are kept apart here.

Experiments:
B. fragilis group = assay: CLSI agar dilution MIC, anaerobic clinical isolates; type: cell-based; settings: Bacteroides fragilis, B. fragilis gp (40 isolates), 48 h, 35° C.
Procedure: (§1) Methods. Recent clinical anaerobic isolates (2000 to date) comprised 40 B. fragilis group, 26 Prevotella/Porphyromonas, 28 fusobacteria, 16 anaerobic Gram positive cocci, 14 anaerobic Gram-positive non-sporeforming rods and 18 clostridia. CLSI agar dilution MIC methodology with enriched Brucella blood agar and inocula of 1×10^5 cfu/spot was used. Plates were incubated in an anaerobic glove box at 35° C. for 48 h. Results.

Prevotella/Porphyromonas = assay: as above; type: cell-based; settings: Prev/Porphy (26 isolates), 48 h
Procedure: as §1

fusobacteria = assay: as above; type: cell-based; settings: Fusobacteria (28 isolates), 48 h
Procedure: as §1

[1] = tested on: anaerobic Gram positive cocci; assay: as above; type: cell-based; settings: Gram + cocci (16 isolates), 48 h
[2] = tested on: anaerobic Gram-positive non-sporeforming rods; assay: as above; type: cell-based; settings: Gram + rods (14 isolates), 48 h
clostridia = assay: organism not typed; type: cell-based; settings: 48 h
[3] = tested on: anaerobic bacteria (all 142 isolates); assay: CLSI agar dilution MIC, all anaerobic clinical isolates; type: cell-based; settings: for MIC50 / MIC90: All (142 isolates), agar dilution, 48 h; for Activity against anaerobic bacteria groups (summary in words): summary of MIC results
Hepatitis B Virus (HBV) = assay: HBV replication in 2.2.15 cell culture, 9-day assay; type: cell-based; settings: for EC50 / EC90: Hepatitis B virus
Procedure: (§2) Anti-Hepatitis B Virus (HBV) analyses and an assessment of cytotoxicity were performed in a 9-day assay in the chronically-producing HBV human hepatoblastoma cell line, 2.2.15, as previously described (Korba, B. E. & Gerin, J. L. Use of a standardized cell culture assay to assess activities of nucleosides analogues against hepatitis B virus replication. Antivir. Res. 19, 55-70 (1992)).
(§3) Values presented (±standard deviations [S.D.]) were calculated by linear regression analysis using data combined from all treated cultures. S.D. were calculated using the standard error of regression generated from linear regression analyses (QuattroPro™). EC50, EC90=drug concentration at which a 2-fold, or a 10-fold depression of HBV DNA (relative to the average levels in untreated cultures), respectively, was observed, CC50=drug concentration at which a 2-fold depression of neutral red dye uptake (relative to the average levels in untreated cultures) was observed, The EC90 values were used for the calculation of the Selectivity Indexes [S.I.] since at least a 3-fold depression of HBV levels is typically required to achieve statistical significance in this assay system. HBV R.I.=intracellular HBV DNA replication intermediate.

[4] = Cytotoxicity in 2.2.15 cells (neutral red dye uptake); type: cell-based; settings: human, 2-fold depression of neutral red dye uptake
Procedure: as §2, §3

[5] = tested on: H3N2 influenza virus, type A; assay: Multiple cycle CPE inhibition assay on MDCK cell monolayers; type: cell-based; settings: 0% EMEM + Hepes + Trypsin
Procedure: (§4) EC50 (μg/mL) values for 2-(acetolyloxy)-3-methyl-N-(5-bromo-2-thiazolyl)benzamide (RM4803), 2-(acetolyloxy)-3-methyl-N-(5-chloro-2-thiazolyl)benzamide (RM4804), and 2-(acetolyloxy)-3-methoxy-N-(5-bromo-2-thiazolyl)benzamide (RM4806), on Human Rhinovirus Type 39 (HRV-39), and H3N2 influenza virus, type A, using a multiple cycle CPE inhibition assay on OH-I Hela and Madin Darby Canine Kidney (MDCK) cell monolayers, respectively, were measured by microscopic and spectrophotometric methods. Pirodavir and Oseltamivir were included as positive controls.

[6] = tested on: Human Rhinovirus Type 39 (HRV-39); assay: Multiple cycle CPE inhibition assay on OH-I Hela cell monolayers; type: cell-based; settings: Rhinovirus A, HRV39, HRV-39, OH-Hela, 2% McCoys + Hepes Buffer
Procedure: as §4

Giardia intestinalis = assay: Antiparasite test by conventional means; type: cell-based; settings: at concentrations of at least 50 μg/mL
Procedure: (§5) The above identified compounds according to Formula (IV) were tested by conventional means against Trichomis vaginalis, Giardia Intestinalis, and Trypanosoma brucei.

Trichomonas vaginalis = assay: Antiparasite test by conventional means; type: cell-based; settings: at concentrations of at least 50 μg/mL
Procedure: as §5

Trypanosoma brucei = assay: Antiparasite test by conventional means; type: cell-based; settings: at concentrations of at least 50 μg/mL
Procedure: as §5

[7] = tested on: Paramyxovirus: Sendai virus; assay: microbe, parasite or virus in culture; type: cell-based; settings: Respirovirus muris; Sendai virus in cell culture (Table 2)
Cryptosporidium spp. = assay: Efficacy against intracellular protozoa
Neospora spp. = assay: Efficacy against intracellular protozoa
Sarcocystis neurona = assay: Efficacy against intracellular protozoa
[8] = tested on: hepatitis C virus (HCV) replicon; assay: HCV replication in AVA5 replicon cell culture, 3-day assay; type: cell-based
Procedure: (§6) Anti-Hepatitis C Virus (HCV) analyses and an assessment of cytotoxicity were performed in a 3-day assay in the HCV replicon-containing human hepatoblastoma cell line, AVA5 (Okuse, C., Rinaudo, J. A., Farrar, K., Wells, F. & Korba, B. E. Enhancement of antiviral activity against hepatitis C virus in vitro by interferon combination therapy. Antivir. Res. 65, 23-34 (2005)) as previously described (Blight, K. J., Kolykhalov, A. A. & Rice, C. M. Efficient initiation of HCV RNA replication in cell culture. Science 290, 1972-1974 (2000)).
(§7) Values presented (±standard deviations [S.D.]) were calculated by linear regression analysis using data combined from all treated cultures. S.D. were calculated using the standard error of regression generated from the linear regression analyses (QuattroPro™). EC50, EC90=drug concentration at which a 2-fold, or a 10-fold depression of HCV RNA (relative to the average levels in untreated cultures), respectively, was observed. CC50=drug concentration at which a 2-fold depression of neutral red dye uptake was observed relative to the average levels in untreated cultures. Selectivity index=CC50/EC50.

[9] = Cytotoxicity in AVA5 cells (neutral red dye uptake); type: cell-based, human; settings: human, 2-fold depression of neutral red dye uptake
Procedure: as §6, §7

[10] = Clostridia (18 isolates), agar dilution, read-out: MIC50
[11] = microscopic reading, read-out: EC50, Microscopic
[12] = spectrophotometric reading, read-out: EC50, Spectrophotometer

Structure (SMILES): CCC[C@@H]1C[C@@H](C(=O)N[C@@H]([C@H]2O[C@H](SC)[C@H](O)[C@@H](O)[C@H]2O)[C@H](C)Cl)N(C)C1 [Clindamycin]
- MIC50 (B. fragilis group): 2 µg/mL (≈ 4.71 µM)
- MIC90 (B. fragilis group): > 32 µg/mL
- MIC50 (Prevotella/Porphyromonas): ≤ 0.015 µg/mL
- MIC90 (Prevotella/Porphyromonas): ≤ 0.015 µg/mL
- MIC50 (fusobacteria): 0.06 µg/mL (≈ 0.141 µM)
- MIC90 (fusobacteria): 0.125 µg/mL (≈ 0.294 µM)
- MIC50 [1]: 0.125 µg/mL
- MIC90 [1]: 0.5 µg/mL
- MIC50 [2]: 0.125 µg/mL
- MIC90 [2]: 4 µg/mL
- MIC50 (clostridia): 1 µg/mL (≈ 2.35 µM)
- MIC90 (clostridia): > 32 µg/mL
- MIC50 [3]: 0.125 µg/mL (≈ 0.294 µM)
- MIC90 [3]: 8 µg/mL (≈ 18.8 µM)

Structure (SMILES): Nc1ccn([C@@H]2CS[C@H](CO)O2)c(=O)n1 [Lamivudine, reference compound]
- EC50 (Hepatitis B Virus (HBV); read-out: Extracellular Virion DNA EC50): 0.058 ± 0.006 µM
- EC90 (Hepatitis B Virus (HBV); read-out: Extracellular Virion DNA EC90): 0.164 ± 0.015 µM
- EC50 (Hepatitis B Virus (HBV); read-out: Intracellular HBV R.I. EC50): 0.172 ± 0.02 µM
- EC90 (Hepatitis B Virus (HBV); read-out: Intracellular HBV R.I. EC90): 0.66 ± 0.068 µM
- Selectivity Index R.I. (Hepatitis B Virus (HBV); calculated with EC90 values (CC50/EC90), HBV R.I.): 3377
- Selectivity Index Virion (Hepatitis B Virus (HBV); calculated with EC90 values (CC50/EC90), virion DNA): 12959
- CC50 at 9 day [4]: 2230 ± 76 µM

Structure (SMILES): Cc1ncc([N+](=O)[O-])n1CCO [Metronidazole]
- MIC50 (B. fragilis group): 1 µg/mL (≈ 5.84 µM)
- MIC90 (B. fragilis group): 2 µg/mL (≈ 11.7 µM)
- MIC50 (Prevotella/Porphyromonas): 0.5 µg/mL (≈ 2.92 µM)
- MIC50 (fusobacteria): 0.25 µg/mL (≈ 1.46 µM)
- MIC90 (fusobacteria): 0.25 µg/mL (≈ 1.46 µM)
- MIC50 [1]: 0.5 µg/mL
- MIC90 [1]: 1 µg/mL
- MIC50 [2]: > 16 µg/mL
- MIC90 [2]: > 16 µg/mL
- MIC50 [3]: 1 µg/mL (≈ 5.84 µM)
- MIC90 [3]: 2 µg/mL (≈ 11.7 µM)

Structure (SMILES): CC(=O)Oc1ccccc1C(=O)Nc1ncc([N+](=O)[O-])s1 [Nitazoxanide, 2-(acetolyloxy)-N-(5-nitro-2-thiazolyl) benzamide]
- MIC50 (B. fragilis group): 2 µg/mL (≈ 6.51 µM)
- MIC90 (B. fragilis group): 4 µg/mL (≈ 13 µM)
- MIC50 (Prevotella/Porphyromonas): 4 µg/mL (≈ 13 µM)
- MIC90 (Prevotella/Porphyromonas): 8 µg/mL (≈ 26 µM)
- MIC50 (fusobacteria): 1 µg/mL (≈ 3.25 µM)
- MIC50 [1]: 0.5 µg/mL
- MIC90 [1]: 2 µg/mL
- MIC50 [2]: 16 µg/mL
- MIC90 [2]: > 32 µg/mL
- MIC50 (clostridia; [10]): 0.5 µg/mL (≈ 1.63 µM)
- MIC50 [3]: 2 µg/mL (≈ 6.51 µM)
- MIC90 [3]: 4 µg/mL (≈ 13 µM)
- Activity against anaerobic bacteria groups (summary in words) [3]: potent against all anaerobic bacteria groups except for Gram-positive anaerobic rods

Structure (SMILES): CCOC(=O)C1=C[C@@H](OC(CC)CC)[C@H](NC(C)=O)[C@@H](N)C1 [Oseltamivir, reference compound]
- EC50 [5, 11]: 0.13 to 0.17 µg/mL
- EC50 [5, 12]: 0.08 to 0.36 µg/mL

Structure (SMILES): CCOC(=O)c1ccc(OCCC2CCN(c3ccc(C)nn3)CC2)cc1 [Pirodavir, reference compound]
- EC50 [6, 11]: 0.007 µg/mL
- EC50 [6, 12]: 0.004 µg/mL

Structure (SMILES): CC(=O)Oc1c(C)cccc1C(=O)Nc1ncc(Cl)s1 [RM-4804, 2-(acetolyloxy)-3-methyl-N-(5-chloro-2-thiazolyl)benzamide]
- EC50 [6, 11]: 0.57 µg/mL
- EC50 [6, 12]: 0.32 µg/mL
- EC50 [5, 11]: 0.93 µg/mL
- EC50 [5, 12]: 0.57 µg/mL
- antiparasite activity (Giardia intestinalis): failed to exhibit antiparasite activitity
- antiparasite activity (Trichomonas vaginalis): failed to exhibit antiparasite activitity
- antiparasite activity (Trypanosoma brucei): failed to exhibit antiparasite activitity

Structure (SMILES): COc1cccc(C(=O)Nc2ncc(Br)s2)c1OC(C)=O [RM-4806, 2-(acetolyloxy)-3-methoxy-N-(5-bromo-2-thiazolyl)benzamide]
- EC50 [6, 11]: 5 µg/mL
- EC50 [6, 12]: 4 µg/mL
- EC50 [5, 11]: 0.46 µg/mL
- EC50 [5, 12]: 0.57 µg/mL
- antiparasite activity (Giardia intestinalis): failed to exhibit antiparasite activitity
- antiparasite activity (Trichomonas vaginalis): failed to exhibit antiparasite activitity
- antiparasite activity (Trypanosoma brucei): failed to exhibit antiparasite activitity

Structure (SMILES): CC(=O)Oc1ccccc1C(=O)Nc1ncc(Br)s1 [RM-4820, 2-(acetolyloxy)-N-(5-bromo-2-thiazolyl)benzamide]
- EC50 [7]: 0.34 µM
- efficacy against intracellular protozoa (Cryptosporidium spp.): effective
- efficacy against intracellular protozoa (Neospora spp.): effective
- efficacy against intracellular protozoa (Sarcocystis neurona): effective

Structure (SMILES): CC(=O)Oc1ccc(C)cc1C(=O)Nc1ncc(Br)s1 [RM-4821]
- EC50 [7]: 0.36 µM
- efficacy against intracellular protozoa (Cryptosporidium spp.): effective
- efficacy against intracellular protozoa (Neospora spp.): effective
- efficacy against intracellular protozoa (Sarcocystis neurona): effective

Structure (SMILES): CC(=O)Oc1cc(C)ccc1C(=O)Nc1ncc(Br)s1 [RM-4822]
- EC50 [7]: 0.36 µM
- efficacy against intracellular protozoa (Cryptosporidium spp.): effective
- efficacy against intracellular protozoa (Neospora spp.): effective
- efficacy against intracellular protozoa (Sarcocystis neurona): effective

Structure (SMILES): NC(=O)c1ncn([C@@H]2O[C@H](CO)[C@@H](O)[C@H]2O)n1 [Ribavirin, reference compound]
- Selectivity Index ([8]; AVA5 cells, CC50/EC50): 0.6
- EC50 ([8]; Hepatitis C virus, Ava5): 94 ± 10 µM
- EC90 ([8]; Hepatitis C virus, Ava5): > 100 µM
- CC50 at 3 day [9]: 61 ± 2.9 µM

Structure (SMILES): O=C(Nc1ncc([N+](=O)[O-])s1)c1ccccc1O [Tizoxanide]
- MIC50 (B. fragilis group): 2 µg/mL (≈ 7.54 µM)
- MIC90 (B. fragilis group): 4 µg/mL (≈ 15.1 µM)
- MIC90 (Prevotella/Porphyromonas): 16 µg/mL (≈ 60.3 µM)
- MIC50 (fusobacteria): 0.5 µg/mL (≈ 1.89 µM)
- MIC90 (fusobacteria): 2 µg/mL (≈ 7.54 µM)
- MIC50 [1]: 0.5 µg/mL
- MIC90 [1]: 1 µg/mL
- MIC50 [2]: 8 µg/mL
- MIC90 [2]: > 32 µg/mL
- MIC50 (clostridia; [10]): 0.25 µg/mL (≈ 0.943 µM)
- MIC50 [3]: 2 µg/mL (≈ 7.54 µM)
- MIC90 [3]: 4 µg/mL (≈ 15.1 µM)
- Activity against anaerobic bacteria groups (summary in words) [3]: potent against all anaerobic bacteria groups except for Gram-positive anaerobic rods
